# ChEMBL document CHEMBL1201862, “PubChem BioAssay data set” (2004)
#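 96-well plates; 48 h exposure; 5 concentrations. Endpoints by linear interpolation between flanking doses. Not reached: highest tested concentration assigned. Abbreviation: GI50, concentration required for 50% inhibition of growth.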 The source made the active and inactive calls. Rule as the data show it: active = GI50 up to about 1.1 µM and inactive = higher.
# What was measured:
# Assay in all cases: DTP human tumour cell line panel, 48 h
# HOP-62 = test system: HOP-62
# RXF 631 = test system: RXF 631
# RXF 393 = test system: RXF 393
# SK-OV-3 = test system: SK-OV-3
# HOP-92 = test system: HOP-92
# UACC-257 = test system: UACC-257
# OVCAR-8 = test system: OVCAR-8
# SK-MEL-2 = test system: SK-MEL-2
# SK-MEL-28 = test system: SK-MEL-28
# U-251 = test system: U-251
# HCC 2998 = test system: HCC 2998
# 786-0 = test system: 786-0
# HCT-15 = test system: HCT-15
# COLO 205 = test system: COLO 205
# EKVX = test system: EKVX
# ACHN = test system: ACHN
# NCI-H226 = test system: NCI-H226
# MOLT-4 = test system: MOLT-4
# HL-60 = test system: HL-60
# A549 = test system: A549
# TK-10 = test system: TK-10
# XF498 = test system: XF498
# HCT-116 = test system: HCT-116
# SNB-75 = test system: SNB-75
# DLD-1 = test system: DLD-1
# Malme-3M = test system: Malme-3M
# NCI-H23 = test system: NCI-H23
# SF-539 = test system: SF-539
# KM-20L2 = test system: KM-20L2
# M19-MEL = test system: M19-MEL
# SNB-19 = test system: SNB-19
# SR = test system: SR
# OVCAR-3 = test system: OVCAR-3
# LXFL 529 = test system: LXFL 529
# RPMI-8226 = test system: RPMI-8226
# SW-620 = test system: SW-620
# SNB-78 = test system: SNB-78
# SN12C = test system: SN12C
# CCRF-CEM = test system: CCRF-CEM
# OVCAR-5 = test system: OVCAR-5
# LOX IMVI = test system: LOX IMVI
# UO-31 = test system: UO-31
# HOP-18 = test system: HOP-18
# NCI-H460 = test system: NCI-H460
# HT-29 = test system: HT-29
# UACC-62 = test system: UACC-62
# SF-268 = test system: SF-268
# SF-295 = test system: SF-295
# M14 = test system: M14
# OVCAR-4 = test system: OVCAR-4
# KM12 = test system: KM12
# CAKI-1 = test system: CAKI-1
# IGROV-1 = test system: IGROV-1
# K562 = test system: K562
# DMS-273 = test system: DMS-273
# SK-MEL-5 = test system: SK-MEL-5
# A498 = test system: A498
# NCI-H522 = test system: NCI-H522
# DMS-114 = test system: DMS-114
compound,measurement,setting,value
CCOC(=O)NC(=O)c1cn(CCSCCOC(=O)NCCCCCCNC(=O)OCCSCCn2cc(C(=O)NC(=O)OCC)c(=O)n(C)c2=O)c(=O)n(C)c1=O,GI50,HOP-62,51.5 µM (inactive)
same,GI50,RXF 631,21 µM (inactive)
same,GI50,RXF 393,27.6 µM (inactive)
same,GI50,SK-OV-3,34.7 µM (inactive)
same,GI50,HOP-92,20.9 µM (inactive)
same,GI50,UACC-257,24.4 µM (inactive)
same,GI50,OVCAR-8,20.1 µM (inactive)
same,GI50,SK-MEL-2,34.2 µM (inactive)
same,GI50,SK-MEL-28,41.8 µM (inactive)
same,GI50,U-251,16.8 µM (inactive)
same,GI50,HCC 2998,30.5 µM (inactive)
same,GI50,786-0,30.3 µM (inactive)
same,GI50,HCT-15,86.3 µM
same,GI50,COLO 205,56.2 µM (inactive)
same,GI50,EKVX,> 100 µM (inactive)
same,GI50,ACHN,> 100 µM (inactive)
same,GI50,NCI-H226,21.1 µM (inactive)
same,GI50,MOLT-4,5.68 µM (inactive)
same,GI50,HL-60,15.3 µM (inactive)
same,GI50,A549,45.2 µM (inactive)
same,GI50,TK-10,44.3 µM (inactive)
same,GI50,XF498,18.1 µM (inactive)
same,GI50,HCT-116,19.2 µM (inactive)
same,GI50,SNB-75,> 100 µM (inactive)
same,GI50,DLD-1,72.8 µM (inactive)
same,GI50,Malme-3M,24.6 µM (inactive)
same,GI50,NCI-H23,19.9 µM (inactive)
same,GI50,SF-539,25.9 µM (inactive)
same,GI50,KM-20L2,39.7 µM (inactive)
same,GI50,M19-MEL,21.4 µM (inactive)
same,GI50,SNB-19,34 µM (inactive)
same,GI50,SR,13.4 µM (inactive)
same,GI50,OVCAR-3,23.8 µM (inactive)
same,GI50,LXFL 529,5.36 µM (inactive)
same,GI50,RPMI-8226,20.5 µM (inactive)
same,GI50,SW-620,29.8 µM (inactive)
same,GI50,SNB-78,> 100 µM (inactive)
same,GI50,SN12C,21.8 µM (inactive)
same,GI50,CCRF-CEM,30 µM (inactive)
same,GI50,OVCAR-5,> 100 µM (inactive)
same,GI50,LOX IMVI,32.1 µM (inactive)
same,GI50,UO-31,> 100 µM (inactive)
same,GI50,HOP-18,0.237 µM (active)
same,GI50,NCI-H460,29.9 µM (inactive)
same,GI50,HT-29,52.5 µM (inactive)
same,GI50,UACC-62,24.8 µM (inactive)
same,GI50,SF-268,24 µM (inactive)
same,GI50,SF-295,75.7 µM (inactive)
COc1ccc2nc3cc(Cl)ccc3c(NCCC(=O)OCC(O)C(O)C(O[C@H](C)C(=O)NC(C)C(=O)NC(CCC(N)=O)C(=O)OCc3ccccc3)C(C=O)NC(C)=O)c2c1 (some centres not stated),GI50,HOP-62,16.1 µM (inactive)
same,GI50,RXF 631,19.6 µM (inactive)
same,GI50,SK-OV-3,18.8 µM (inactive)
same,GI50,M14,19.5 µM (inactive)
same,GI50,HOP-92,17.8 µM (inactive)
same,GI50,UACC-257,95.7 µM (inactive)
same,GI50,OVCAR-8,16 µM (inactive)
same,GI50,SK-MEL-2,21.1 µM (inactive)
same,GI50,SK-MEL-28,17.7 µM (inactive)
same,GI50,U-251,18.2 µM (inactive)
same,GI50,HCC 2998,17.7 µM (inactive)
same,GI50,786-0,16.9 µM (inactive)
same,GI50,HCT-15,20.7 µM
same,GI50,COLO 205,18.3 µM (inactive)
same,GI50,EKVX,18.4 µM (inactive)
same,GI50,ACHN,18.1 µM (inactive)
same,GI50,OVCAR-4,20 µM (inactive)
same,GI50,NCI-H226,22.5 µM (inactive)
same,GI50,MOLT-4,15.4 µM (inactive)
same,GI50,HL-60,25.1 µM (inactive)
same,GI50,A549,17.4 µM (inactive)
same,GI50,TK-10,22.8 µM (inactive)
same,GI50,XF498,18.5 µM (inactive)
same,GI50,KM12,19.1 µM (inactive)
same,GI50,HCT-116,18 µM (inactive)
same,GI50,SNB-75,16.1 µM (inactive)
same,GI50,DLD-1,17.4 µM (inactive)
same,GI50,Malme-3M,> 100 µM (inactive)
same,GI50,NCI-H23,14.4 µM (inactive)
same,GI50,CAKI-1,20.2 µM (inactive)
same,GI50,SF-539,16.8 µM (inactive)
same,GI50,KM-20L2,17.2 µM (inactive)
same,GI50,M19-MEL,18 µM (inactive)
same,GI50,SNB-19,24.7 µM (inactive)
same,GI50,SR,4.03 µM (inactive)
same,GI50,OVCAR-3,19.2 µM (inactive)
same,GI50,LXFL 529,17.3 µM (inactive)
same,GI50,SW-620,15 µM (inactive)
same,GI50,IGROV-1,16 µM (inactive)
same,GI50,K562,14 µM (inactive)
same,GI50,SNB-78,32.5 µM (inactive)
same,GI50,DMS-273,14.2 µM (inactive)
same,GI50,SN12C,16.1 µM (inactive)
same,GI50,CCRF-CEM,23.2 µM (inactive)
same,GI50,OVCAR-5,23.8 µM (inactive)
same,GI50,UO-31,20.5 µM (inactive)
same,GI50,NCI-H460,16.2 µM (inactive)
same,GI50,HT-29,17.8 µM (inactive)
same,GI50,SK-MEL-5,16.6 µM (inactive)
same,GI50,A498,21 µM (inactive)
same,GI50,UACC-62,17.9 µM (inactive)
same,GI50,NCI-H522,14.5 µM (inactive)
same,GI50,SF-268,17.9 µM (inactive)
same,GI50,SF-295,18.2 µM (inactive)
O=C(O)CCNCCCNCCC(=O)O,GI50,HOP-62,> 100 µM (inactive)
same,GI50,RXF 631,> 100 µM (inactive)
same,GI50,RXF 393,> 100 µM (inactive)
same,GI50,SK-OV-3,> 100 µM (inactive)
same,GI50,M14,> 100 µM (inactive)
same,GI50,HOP-92,> 100 µM (inactive)
same,GI50,OVCAR-8,> 100 µM (inactive)
same,GI50,SK-MEL-2,> 100 µM (inactive)
same,GI50,SK-MEL-28,> 100 µM (inactive)
same,GI50,U-251,> 100 µM (inactive)
same,GI50,HCC 2998,> 100 µM (inactive)
same,GI50,786-0,> 100 µM (inactive)
same,GI50,HCT-15,> 100 µM
same,GI50,COLO 205,> 100 µM (inactive)
same,GI50,EKVX,> 100 µM (inactive)
same,GI50,ACHN,> 100 µM (inactive)
same,GI50,OVCAR-4,> 100 µM (inactive)
same,GI50,NCI-H226,> 100 µM (inactive)
same,GI50,MOLT-4,> 100 µM (inactive)
same,GI50,HL-60,> 100 µM (inactive)
same,GI50,A549,> 100 µM (inactive)
same,GI50,TK-10,> 100 µM (inactive)
same,GI50,XF498,> 100 µM (inactive)
same,GI50,KM12,> 100 µM (inactive)
same,GI50,HCT-116,> 100 µM (inactive)
same,GI50,SNB-75,66.8 µM (inactive)
same,GI50,DLD-1,> 100 µM (inactive)
same,GI50,Malme-3M,> 100 µM (inactive)
same,GI50,NCI-H23,> 100 µM (inactive)
same,GI50,CAKI-1,> 100 µM (inactive)
same,GI50,SF-539,> 100 µM (inactive)
same,GI50,KM-20L2,> 100 µM (inactive)
same,GI50,M19-MEL,> 100 µM (inactive)
same,GI50,SNB-19,> 100 µM (inactive)
same,GI50,OVCAR-3,> 100 µM (inactive)
same,GI50,LXFL 529,> 100 µM (inactive)
same,GI50,RPMI-8226,> 100 µM (inactive)
same,GI50,SW-620,> 100 µM (inactive)
same,GI50,IGROV-1,> 100 µM (inactive)
same,GI50,K562,> 100 µM (inactive)
same,GI50,DMS-273,> 100 µM (inactive)
same,GI50,SN12C,> 100 µM (inactive)
same,GI50,CCRF-CEM,> 100 µM (inactive)
same,GI50,OVCAR-5,> 100 µM (inactive)
same,GI50,LOX IMVI,> 100 µM (inactive)
same,GI50,HOP-18,> 100 µM (inactive)
same,GI50,NCI-H460,> 100 µM (inactive)
same,GI50,HT-29,> 100 µM (inactive)
same,GI50,SK-MEL-5,> 100 µM (inactive)
same,GI50,DMS-114,> 100 µM (inactive)
same,GI50,A498,> 100 µM (inactive)
same,GI50,UACC-62,> 100 µM (inactive)
same,GI50,NCI-H522,> 100 µM (inactive)
same,GI50,SF-268,> 100 µM (inactive)
same,GI50,SF-295,> 100 µM (inactive)
